The source of these data is patent US20180355326A1, “CYTOCHROME P450 AND CYTOCHROME P450 REDUCTASE POLYPEPTIDES, ENCODING NUCLEIC ACID MOLECULES AND USES THEREOF” (UNIVERSITY OF BRITISH COLUMBIA, priority 2012, published 2018).

For series [1], the target named is T1, SaCYP76F39v1 (SaCYP76-G10) (Santalum album, UniProt V5RH69). The experiment in a line: Oxidation of various mono- and sesquiterpene substrates in vitro by SaCYP76F39v1. Particulars: product formation the same as that catalyzed by CYP76-G5.
In series [2] the test system is SaCYP76F38v1 (SaCYP76-G5). The experiment in a line: Oxidation of various mono- and sesquiterpene substrates by yeast microsomes containing SaCYP76F38v1. In kind it is biochemical, Santalum album. Particulars: 60 to 80 μM of the terpene substrate, 30° C., 1 hour, GC-MS, compared to vector control.
In series [3] the target is T1, SaCYP76F39v1 (SaCYP76-G10). The experiment in a line: In vitro assay 2, microsomes containing SaCYP76F39v1 with a mixture of santalenes and bergamotene. It counts as biochemical. Particulars: substrate mixture of santalenes and bergamotene; no product in the absence of NADPH or with empty vector microsomes. How it is done:
(§1) Assays were performed in 400 μL reaction volumes containing 50 mM potassium phosphate pH 7.5, 0.8 mM NADPH and 40 μM of substrate. Enzyme reactions were initiated by adding 50 μL of the microsomes preparation (prepared in Example 8), incubated at 30° C. for 2 hours with shaking and stopped by adding 500 μL hexane.
Microsomes containing SaCYP76F39v1 (SaCYP76-G10) were assayed for their activity using the assay described in Section B. above.

The target in series [4] is T2, SaCYP76F37v1 (SaCYP76-G11) (Santalum album, UniProt V5RGC8). As to the kind of experiment: Substrate specificity, yeast microsomes containing SaCYP76F37v1 with various sesquiterpenes. In kind it is biochemical. Particulars: 40 μM of substrate, 30° C., 2 hours; for activity at 40 µM: rate of product formation relative to product formation by SaCYP76F39v1 with β-santalene. How it is done:
as §1
(§2) To test the range of substrates used by the clade I and clade II SaCYP76F enzymes, yeast microsomes containing SaCYP76F37v1 (SaCYP76-G11) and SaCYP76F39v1 (SaCYP76-G10) were assayed for their ability to convert various sesquiterpenes, including the substrates α-santalene and β-santalene and 7 additional sesquiterpenes which resemble santalenes in the acyclic isoprenyl side chain, including α-curcumene, zingiberine, β-bisabolene, β-sesquiphellandrene, α-bisabolol, trans-β-farnesene and trans-nerolidol. Each substrate was tested using the in vitro assay described in Example 11.B.1.b above.
(§3) The results are shown in Table 15 below, which sets forth the substrates, including their structures, and the relative activities which represent the rate of product formation relative to product formation by SaCYP76F39v1 (SaCYP76-G10) with β-santalene.

Series [5] has as its target T1, SaCYP76F39v1 (SaCYP76-G10). As to the kind of experiment: Substrate specificity, yeast microsomes containing SaCYP76F39v1 with various sesquiterpenes. In kind it is biochemical. As to conditions: 40 μM of substrate, 30° C., 2 hours; for activity at 40 µM: rate of product formation relative to product formation by SaCYP76F39v1 with β-santalene. As to the method: as §1, §2, §3

The target in series [6] is T1, SaCYP76F39v1 (SaCYP76-G10). The experiment in a line: Oxidation of individual sesquiterpenes by microsomes containing SaCYP76F39v1. In kind it is biochemical. Particulars: partially purified substrate fraction, GC-MS. How it is done:
as §1
(§4) Microsome preparations containing candidate P450 were assayed for their capacity to oxidize individual sesquiterpenes. The sesquiterpenes were isolated as described in Example 9 above. Three fractions containing mainly α-santalene, α-trans-bergamotene, or epi-β-santalene and β-santalene were used as individual substrates in assays containing clade I P450 SaCYP76F39v1 (SaCYP76-G10) or clade II P450 SaCYP76F37v1 (SaCYP76-G11). The assays were performed as described in Section B.1.b. above and products were identified by comparison to authentic standards (see Table 12 and FIG. 20G).

The target of series [7] is T2, SaCYP76F37v1 (SaCYP76-G11). The experiment in a line: Oxidation of individual sesquiterpenes by microsomes containing SaCYP76F37v1. In kind it is biochemical. Particulars: partially purified substrate fraction, GC-MS. As to the method: as §1, §4
Series [8] concerns SaCYP76F38v1 (SaCYP76-G5). The experiment in a line: Coupled enzyme assay with SaSSy and FPP, microsomes containing SaCYP76F38v1. In kind it is biochemical, Santalum album. Particulars: in vitro reaction products of SaSSy and 70 μM FPP, 0.8 mM NADPH, 30° C., 1 hour.
Substrate in series [9]: C=C1[C@@H]2CC[C@@H](C2)[C@@]1(C)CCC=C(C)C
The experiment in a line: Kinetic assay with α-santalene or β-santalene as the substrate, SaCYP76F39v1. In kind it is biochemical, Santalum album. As to conditions: other: apparent Km, 17 pmol P450, substrate 12 to 138 μM, 0.8 mM NADPH, pH 7.5, 30° C., 20 minutes. How it is done:
(§5) To test the kinetics of the clade I and clade II SaCYP76F enzymes, kinetic assays were performed with SaCYP76F37v1 (SaCYP76-G11) and SaCYP76F39v1 (SaCYP76-G10) with α-santalene or β-santalene as the substrate. Assays were performed in 400 μL reaction volumes containing 50 mM potassium phosphate pH 7.5, 0.8 mM NADPH and substrate concentrations of 12 to 138 μM of α-santalene or β-santalene. Enzyme reactions were initiated by adding either 17 pmol of SaCYP7639v1 or 35 pmol of SaCYP7637v1, incubated at 30° C. for 20 minutes with shaking and stopped by adding 500 μL hexane. […] Kinetic data were evaluated using tools described in Hernandez and Ruiz ((1998) Bioinformatics. 14:227-228).
(§6) The apparent Km values, kcat values and kcat/Km values for SaCYP76F39v1 (SaCYP76-G10) and SaCYP76F37v1 (SaCYP76-G11) with α-santalene and β-santalene are set forth in Table 14 below.

Substrate in series [10]: CC(C)=CCC[C@]1(C)C2C[C@@H]3[C@H](C2)C31C
Described as above. It counts as biochemical, Santalum album. Particulars: other: apparent Km, 17 pmol P450, substrate 12 to 138 μM, 0.8 mM NADPH, pH 7.5, 30° C., 20 minutes. As to the method:
as §5, §6

Substrate in series [11]: C=C1[C@@H]2CC[C@@H](C2)[C@@]1(C)CCC=C(C)C
As to the kind of experiment: Kinetic assay with α-santalene or β-santalene as the substrate, SaCYP76F37v1. In kind it is biochemical, Santalum album. As to conditions: other: apparent Km, 35 pmol P450, substrate 12 to 138 μM, 0.8 mM NADPH, pH 7.5, 30° C., 20 minutes. As to the method:
as §5, §6

Substrate in series [12]: CC(C)=CCC[C@]1(C)C2C[C@@H]3[C@H](C2)C31C
The series is described as above. In kind it is biochemical, Santalum album. Particulars: other: apparent Km, 35 pmol P450, substrate 12 to 138 μM, 0.8 mM NADPH, pH 7.5, 30° C., 20 minutes. As to the method: as §5, §6

Turning to `CC(C)=CCC[C@](C)(O)C1CC=C(C)CC1` (stereo partly shown) [bisabolol], in [1], the “Hydroxylation by CYP76-G10 in vitro” value is given as “catalyzed the hydroxylation”. The “Products of reaction with SaCYP76F38v1” value in series [2] is listed as “one product”.
As for `C=C1C2CCC(C2)[C@@]1(C)CCC=C(C)C` (stereo partly drawn) [epi-β-santalene], the “Hydroxylation by SaCYP76F39v1” value in [3] is “catalyzed the hydroxylation”.
Consider `C=CC(C)(O)CCC=C(C)C` (stereo not shown) [linalool], for which the “Hydroxylation by CYP76-G10 in vitro” value in [1] was “catalyzed the hydroxylation”. Besides, the “Products of reaction with SaCYP76F38v1” value in series [2] is “two products”.
Turning to `C=CC(C)(O)CCC=C(C)CCC=C(C)C` (stereo not shown) [nerolidol], the “Products of reaction with SaCYP76F38v1” value in series [2] is “two products”.
`C=CC(=C)CC/C=C(\C)CCC=C(C)C` [trans-farnesene]: the activity at 40 µM in [4] was 0%. Besides, in series [5], the “Use as a substrate by SaCYP76F39v1 (in words)” value is recorded as “did not use” and the activity at 40 µM was found to be 0%.
Regarding `C=CC(C)(O)CC/C=C(\C)CCC=C(C)C` (stereo not drawn) [trans-nerolidol], in series [4], the “Use as a substrate by SaCYP76F37v1 (in words)” value is “selectively active” and the activity at 40 µM was 11.3%. Moreover, in [5], the “Use as a substrate by SaCYP76F39v1 (in words)” value is listed as “did not use” and the activity at 40 µM turned out to be 0%.
In the case of `CC(C)=CCCC(C)C1C=CC(C)=CC1` (stereo not shown) [zingiberene], in series [4], the activity at 40 µM was found to be 0%. Also, in series [5], the “Use as a substrate by SaCYP76F39v1 (in words)” value was “did not use” and the activity at 40 µM was 0%.
Turning to `CC(C)=CCCC(C)(O)C1CC=C(C)CC1` (stereo not drawn) [α-bisabolol], the activity at 40 µM in [4] stood at 0%; in series [5], 9.4%. Further, in series [5], the “Use as a substrate by SaCYP76F39v1 (in words)” value is “low activity”.
The matching figures for `CC(C)=CCCC(C)c1ccc(C)cc1` (stereo not drawn) [α-curcumene]: 0%, 0% and “did not use”.
Turning to `CC(C)=CCC[C@]1(C)C2C[C@@H]3[C@H](C2)C31C` [α-santalene], the figures for the activity at 40 µM in [4] and in series [5] were 17.3% and 99.8%, respectively. In addition, in series [3], the “Hydroxylation by SaCYP76F39v1” value is listed as “catalyzed the hydroxylation”. In addition, the “Products formed with SaCYP76F39v1” value in [6] was “(Z)- and (E)-α-santalol”. In addition, in series [7], the “Products formed with SaCYP76F37v1” value is reported as “only (E)-α-santalol”.
As for `CC(C)=CCCC1(C)C2CC=C(C)C1C2` (stereo not drawn) [α-trans-bergamotene], the “Hydroxylation/oxidation by SaCYP76F38v1” value in series [8] is “catalyzed the hydroxylation”. Moreover, in series [3], the “Hydroxylation by SaCYP76F39v1” value is “catalyzed the hydroxylation”. Also, in [6], the “Products formed with SaCYP76F39v1” value was “(Z)- and (E)-α-trans-bergamotol”. In addition, the “Products formed with SaCYP76F37v1” value in [7] is “only (E)-α-trans-bergamotol”.
The molecule `C=C(CCC=C(C)C)C1CC=C(C)CC1` (stereo not drawn) [β-bisabolene] came in with an activity at 40 µM in [4] of 0%. In addition, in series [5], the “Use as a substrate by SaCYP76F39v1 (in words)” value is on record as “did not use” and the activity at 40 µM stood at 0%.
Consider `C=C1[C@@H]2CC[C@@H](C2)[C@@]1(C)CCC=C(C)C` [β-santalene], for which the activity at 40 µM in [4] amounted to 17.7%; in [5], 100%. The “Hydroxylation by SaCYP76F39v1” value in series [3] is “catalyzed the hydroxylation”.
Molecule `C=C1C=CC(C(C)CCC=C(C)C)CC1` (stereo not drawn) [β-sesquiphellandrene] showed an activity at 40 µM in series [4] of 0%. In series [5], the “Use as a substrate by SaCYP76F39v1 (in words)” value is listed as “did not use” and the activity at 40 µM came out at 0%.

B1: SaCYP76F39v1 (SaCYP76-G10) (Santalum album) (protein)
chain: MDFLSCILFVLFAWALVRALPTLSRGSKAASGRLPPGPVPWPVVGNLLKLGNKPHKSLAELAKSYGPIMCLKLGHMTTIVISTPTVAKEVLQKQDVAFSNRTTPDAVRAHGHDLYSMAWLPVSTRWRTLRKISNSHIFTSQRLDENHHLRRRKLDELLARVAESSLVGAVVDMGAVAFLTSLNLLSNTVFSKDLVEPGLGAVQETKEVVWGMMEEAGRPNLVDYFPVLRRLDPQGIRRRMTGYFGKMLEVFGDIIDERLEWRKQQSDGDSPAGTTNDVLDVLLNIIEDAEIEEKPNRTDVEHFLLDLFAAGSDTTSSTVEWAMTELLRKPETLERARSELHETIGPENLVQEADLPRLPYLQAVVKETFRLHPPVPLLLPRTAEKDAELCGFTVPAGAQIMVNAWAIGRDPGTWEDPESFLPERFLGSDVDVKGRSFELIPFGGGRRICPGLPLAIRMVHLMLGSLIHGFRWKVDDDGMGSPETAMDMDEKFGITLQKAKPLCAVPIRG
For the molecule B1, in series [9], the Km is 34.82 ± 0.41 µM, the kcat was found to be 1.17 s⁻¹ and the kcat/Km was found to be 33000 M⁻¹ s⁻¹. In series [10], the Michaelis constant (Km) turned out to be 25.92 ± 0.11 µM, the catalytic constant (kcat) was 1.12 s⁻¹ and the kcat/Km turned out to be 43000 M⁻¹ s⁻¹.

B2: SaCYP76F37v1 (SaCYP76-G11) (Santalum album) (protein)
chain: MDFLSCILSVLFAWALVRALPTLSRGSKAAGGRLPPGPVPLPVVGNLLKLGSKPHKSLAELAKSYGPIMCLKLGHIITIVISTPTVAKEVLQKQDVAFCNRTIPDAVRAHRHDLHSMVWLPVSTRWRTLRKISNSHIFSSQRLDENHHLRRRKLDELLTRVAESSLVGAVVDIGAVAFLTSLNLLSNTVFSKDLVEPGLGAVQEMEEVVWGITEEAGRPNLVDYFPVLRRLDPQGTRRRMMGYFGKMFEVFGDIIDERLEWRKQQSDGDSPAGTTNDVLDVLLNIIEDAEIEEKPNRTDVEHFLLDLFAAGSDTTSSTVEWAMTELLRKPETLERARSELHETIGPENLVQEADLPRLPYLQAVVKETFRLHPPVPLLLPRTAEKDAELCGFTVPAGAQIMVNAWAIGRDPGTWEDPESFLPERFLGSDVDVKGRSFELIPFGGGRRICPGLPLAIRMVHLMLGSLIHGFRWKVDDDGMGSPETAMDMDEKFGITLQKAKPLCAVPIRG
B2: in series [11], the Km is 157 ± 0.17 µM, the kcat was 0.13 s⁻¹ and the kcat/Km was 810 M⁻¹ s⁻¹. Besides, in series [12], the Km came to 133 ± 0.41 µM, the catalytic constant (kcat) turned out to be 0.2 s⁻¹ and the kcat/Km came to 1500 M⁻¹ s⁻¹.
